As a reminder, the IC50 is the concentration needed to halve the response being measured.

Test [1] addresses T1, Recombinant STAT6 protein (STAT6(W123-T658)) (Homo sapiens, UniProt P42226).
T1 construct: Recombinant STAT6 protein (STAT6(W123-T658))
T1 sequence (P42226 123-658): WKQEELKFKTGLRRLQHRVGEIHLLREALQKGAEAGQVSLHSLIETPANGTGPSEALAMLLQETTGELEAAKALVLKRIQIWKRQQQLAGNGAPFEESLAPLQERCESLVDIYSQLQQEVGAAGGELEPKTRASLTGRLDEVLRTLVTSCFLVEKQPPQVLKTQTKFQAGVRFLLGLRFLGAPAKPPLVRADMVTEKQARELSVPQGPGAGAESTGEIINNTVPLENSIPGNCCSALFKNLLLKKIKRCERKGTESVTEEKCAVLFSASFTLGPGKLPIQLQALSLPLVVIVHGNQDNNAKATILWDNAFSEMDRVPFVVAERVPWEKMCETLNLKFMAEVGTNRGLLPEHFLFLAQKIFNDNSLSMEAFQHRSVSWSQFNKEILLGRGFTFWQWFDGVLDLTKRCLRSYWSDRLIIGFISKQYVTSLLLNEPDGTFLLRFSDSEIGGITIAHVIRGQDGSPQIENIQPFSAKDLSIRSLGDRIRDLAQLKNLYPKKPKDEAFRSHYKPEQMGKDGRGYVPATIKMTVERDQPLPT
Nature of the test: STAT6 Fluorescence Polarization (FP) Assay. The test is classed as binding. The note with it: STAT6(W123-T658) 250 nM, probe 5-FAM-ApYKPFQDLI-NH2 2 nM, 45-minute incubation. Here is the method: STAT6 Fluorescence Polarization (FP) Assay
An FP assay was developed to determine IC50 values for test substances. Recombinant STAT6 protein (STAT6(W123-T658)) at 250 nM was combined with a fluorescently labeled, phosphotyrosine peptide probe (5-FAM-ApYKPFQDLI-NH2) at 2 nM in FP buffer (10 mM HEPES pH 7.4, 50 mM NaCl, 1 mM EDTA, 0.05% Tween 20.2 mM DTT). 50 μL of STAT6-probe mixture was added to serial diluted compounds in black, 96-well plates (Greiner BioOne 655076) to a final concentration of 1% DMSO. Reaction components were mixed, and FP was measured after 45-minute incubation at room temperature using a Tecan Spark multimode plate reader. FP signal (mP) was plotted against the log concentration of the test substances and IC50 values were calculated by nonlinear regression analysis using GraphPad Prism software. For STAT6 FP assay, A=≤300 nM; B=>300-3000 nM; C=>3-30 μM; and D=>30 μM.

Test [2] has as its target T2, Recombinant STAT3 protein (STAT3(G127-I722)) (Homo sapiens, UniProt P40763).
T2 construct: Recombinant STAT3 protein (STAT3(G127-I722))
Nature of the test: STAT3 Fluorescence Polarization (FP) Assay. Type of test: binding. The settings on record: STAT3(G127-I722) 25 nM, probe 5-FAM-GpYLPQTV-NH2 2 nM, 45-minute incubation. Here is the method:
STAT3 Fluorescence Polarization (FP) Assay
An FP assay was developed to determine IC50 values for test substances. Recombinant STAT3 protein (STAT3(G127-I722)) at 25 nM was combined with a fluorescently labeled, phosphotyrosine peptide probe (5-FAM-GpYLPQTV-NH2) at 2 nM in FP buffer (10 mM HEPES pH 7.4, 50 mM NaCl, 1 mM EDTA, 0.05% Tween 20.2 mM DTT). 50 μL of STAT3-probe mixture was added to serial diluted compounds in black, 96-well plates (Greiner BioOne 655076) to a final concentration of 1% DMSO. Reaction components were mixed, and FP was measured after 45-minute incubation at room temperature using a Tecan Spark multimode plate reader. FP signal (mP) was plotted against the log concentration of the test substances and IC50 values were calculated by nonlinear regression analysis using GraphPad Prism software. For STAT3 FP assay, A=≤100 nM; B=>100-1000 nM; C=>1-10 μM; and D=>10 μM.

T2 sequence (P40763 127-722): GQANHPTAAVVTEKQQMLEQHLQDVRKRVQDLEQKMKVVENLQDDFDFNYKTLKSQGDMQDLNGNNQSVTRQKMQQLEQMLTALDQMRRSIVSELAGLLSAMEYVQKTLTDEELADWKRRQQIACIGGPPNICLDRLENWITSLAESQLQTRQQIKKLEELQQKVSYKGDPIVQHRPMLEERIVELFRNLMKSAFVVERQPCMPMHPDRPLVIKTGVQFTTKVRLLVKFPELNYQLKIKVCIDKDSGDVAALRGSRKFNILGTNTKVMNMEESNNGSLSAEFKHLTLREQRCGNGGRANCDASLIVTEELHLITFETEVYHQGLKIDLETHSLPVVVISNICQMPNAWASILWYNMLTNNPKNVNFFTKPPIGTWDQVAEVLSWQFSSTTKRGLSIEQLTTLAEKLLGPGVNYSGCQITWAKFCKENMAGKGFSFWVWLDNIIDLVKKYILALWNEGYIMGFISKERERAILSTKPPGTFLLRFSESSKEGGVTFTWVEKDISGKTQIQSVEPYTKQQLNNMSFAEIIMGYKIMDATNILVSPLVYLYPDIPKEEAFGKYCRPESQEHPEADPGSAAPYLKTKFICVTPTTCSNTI

With `COc1cc(C2CN(C(=O)[C@@H]3CC[C@@H]4CCN(C(C)=O)C[C@H](NC(=O)c5cc6cc(C(F)(F)P(=O)(O)O)ccc6s5)C(=O)N43)C[C@@H]2C#N)ccn1` (relative stereo) [Compound 148, ((2-(((5S,8S,10aR)-3-acetyl-8-((rel-trans)-3-cyano-4-(2-methoxypyridin-4-yl)pyrrolidine-1-carbonyl)-6-oxodecahydropyrrolo[1,2-a][1,5]diazocin-5-yl)carbamoyl)benzo[b]thiophen-5-yl)difluoromethyl)phosphonic acid], the IC50 lay within 300 to 3000 nM in test [1] and 1000 to 10000 nM in test [2].

Take `COc1cccc([C@@H]2CN(C(=O)[C@@H]3CC[C@@H]4CCN(C(C)=O)C[C@H](NC(=O)c5cc6cc(C(F)(F)P(=O)(O)O)ccc6s5)C(=O)N43)C[C@H]2C#N)c1` (relative stereo) [Compound 149, ((2-(((5S,8S,10aR)-3-acetyl-8-((rel-trans)-3-cyano-4-(3-methoxyphenyl)pyrrolidine-1-carbonyl)-6-oxodecahydropyrrolo[1,2-a][1,5]diazocin-5-yl)carbamoyl)benzo[b]thiophen-5-yl)difluoromethyl)phosphonic acid]: the IC50 in test [1] is at most 300 nM; in test [2], 1000 to 10000 nM.

On to `CC(=O)N1CC[C@H]2CC[C@@H](C(=O)N3C[C@@H](C#N)[C@H](c4cccnc4)C3)N2C(=O)[C@@H](NC(=O)c2cc3cc(C(F)(F)P(=O)(O)O)ccc3s2)C1` (relative stereo) [Compound 150, ((2-(((5S,8S,10aR)-3-acetyl-8-((rel-trans)-3-cyano-4-(pyridin-3-yl)pyrrolidine-1-carbonyl)-6-oxodecahydropyrrolo[1,2-a][1,5]diazocin-5-yl)carbamoyl)benzo[b]thiophen-5-yl)difluoromethyl)phosphonic acid], for which the IC50 in test [1] was at most 300 nM; in test [2], 100 to 1000 nM.

Consider `CC(=O)N1CC[C@H]2CC[C@@H](C(=O)N3C[C@@H](C#N)[C@H](C4CCCCC4)C3)N2C(=O)[C@@H](NC(=O)c2cc3cc(C(F)(F)P(=O)(O)O)ccc3s2)C1` (relative stereo) [Compound 151, ((2-(((5S,8S,10aR)-3-acetyl-8-((rel-trans)-3-cyano-4-cyclohexylpyrrolidine-1-carbonyl)-6-oxodecahydropyrrolo[1,2-a][1,5]diazocin-5-yl)carbamoyl)benzo[b]thiophen-5-yl)difluoromethyl)phosphonic acid], for which the figures for the IC50 in test [1] and in test [2] were 300 to 3000 nM and 1000 to 10000 nM, respectively.

As to `CC(=O)N1CC[C@H]2CC[C@@H](C(=O)N3C[C@@H](C#N)[C@](C)(c4ccccc4)C3)N2C(=O)[C@@H](NC(=O)c2cc3cc(C(F)(F)P(=O)(O)O)ccc3s2)C1` (relative stereo) [Compound 152, ((2-(((5S,8S,10aR)-3-acetyl-8-((rel-trans)-4-cyano-3-methyl-3-phenylpyrrolidine-1-carbonyl)-6-oxodecahydropyrrolo[1,2-a][1,5]diazocin-5-yl)carbamoyl)benzo[b]thiophen-5-yl)difluoromethyl)phosphonic acid], the IC50 in test [1] is at most 300 nM; in test [2] it was 1000 to 10000 nM.

On to `CC(=O)N1CC[C@H]2CC[C@@H](C(=O)N3C[C@@H](C#N)C[C@H](c4ccccc4)C3)N2C(=O)[C@@H](NC(=O)c2cc3cc(C(F)(F)P(=O)(O)O)ccc3s2)C1` (relative stereo) [Compound 153, ((2-(((5S,8S,10aR)-3-acetyl-8-((rel-trans)-3-cyano-5-phenylpiperidine-1-carbonyl)-6-oxodecahydropyrrolo[1,2-a][1,5]diazocin-5-yl)carbamoyl)benzo[b]thiophen-5-yl)difluoromethyl)phosphonic acid], for which the IC50 in test [1] was in the range of 300 to 3000 nM; in test [2], 1000 to 10000 nM.

Regarding `CC(=O)N1CC[C@H]2CC[C@@H](C(=O)N3CC[C@@H](c4ccccc4)[C@H](C#N)C3)N2C(=O)[C@@H](NC(=O)c2cc3cc(C(F)(F)P(=O)(O)O)ccc3s2)C1` (relative stereo) [Compound 154, ((2-(((5S,8S,10aR)-3-acetyl-8-((rel-trans)-3-cyano-4-phenylpiperidine-1-carbonyl)-6-oxodecahydropyrrolo[1,2-a][1,5]diazocin-5-yl)carbamoyl)benzo[b]thiophen-5-yl)difluoromethyl)phosphonic acid], the IC50 in test [1] is 300 to 3000 nM; in test [2] it was 1000 to 10000 nM.

As for `CC(=O)N1CC[C@H]2CC[C@@H](C(=O)N3C[C@H](c4ccccc4)[C@@H](C#N)C3)N2C(=O)[C@@H](NC(=O)c2ccc3ccc(C(F)(F)P(=O)(O)O)cc3c2)C1` (relative stereo) [Compound 203, ((7-(((5S,8S,10aR)-3-acetyl-8-(rel-trans)-3-cyano-4-phenylpyrrolidine-1-carbonyl)-6-oxodecahydropyrrolo[1,2-a][1,5]diazocin-5-yl)carbamoyl)naphthalen-2-yl)difluoromethyl)phosphonic acid], the values for the IC50 in test [1] and in test [2] were at most 300 nM and 1000 to 10000 nM, respectively.

In the case of `CC(=O)N1CC[C@H]2CC[C@@H](C(=O)N3C[C@@H](C#N)[C@@H]3c3ccccc3)N2C(=O)[C@@H](NC(=O)c2cc3cc(C(F)(F)P(=O)(O)O)ccc3s2)C1` (relative stereo) [Compound 204, ((2-(((5S,8S,10aR)-3-acetyl-8-((rel-trans)-3-cyano-2-phenylazetidine-1-carbonyl)-6-oxodecahydropyrrolo[1,2-a][1,5]diazocin-5-yl)carbamoyl)benzo[b]thiophen-5-yl)difluoromethyl)phosphonic acid], the IC50 in test [1] lay in the range of 300 to 3000 nM; in test [2] it was 100 to 1000 nM.

Regarding `CC(=O)N1CC[C@H]2CC[C@@H](C(=O)N3C[C@H](C#N)C[C@@H]3c3ccccc3)N2C(=O)[C@@H](NC(=O)c2cc3cc(C(F)(F)P(=O)(O)O)ccc3s2)C1` (relative stereo) [Compound 205, ((2-(((5S,8S,10aR)-3-acetyl-8-((rel-cis)-4-cyano-2-phenylpyrrolidine-1-carbonyl)-6-oxodecahydropyrrolo[1,2-a][1,5]diazocin-5-yl)carbamoyl)benzo[b]thiophen-5-yl)difluoromethyl)phosphonic acid], the IC50 in test [1] fell in the range of 300 to 3000 nM; in test [2], 1000 to 10000 nM.

On to `CC(=O)N1CC[C@H]2CC[C@@H](C(=O)N3C[C@H](C#N)C[C@H]3c3ccccc3)N2C(=O)[C@@H](NC(=O)c2cc3cc(C(F)(F)P(=O)(O)O)ccc3s2)C1` (relative stereo) [Compound 206, ((2-(((5S,8S,10aR)-3-acetyl-8-((rel-trans)-4-cyano-2-phenylpyrrolidine-1-carbonyl)-6-oxodecahydropyrrolo[1,2-a][1,5]diazocin-5-yl)carbamoyl)benzo[b]thiophen-5-yl)difluoromethyl)phosphonic acid], for which the IC50 in test [1] lay within 300 to 3000 nM; in test [2], 1000 to 10000 nM.

For the molecule `CC(=O)N1CC[C@H]2CC[C@@H](C(=O)N3CC[C@H](C#N)[C@H]3c3ccccc3)N2C(=O)[C@@H](NC(=O)c2cc3cc(C(F)(F)P(=O)(O)O)ccc3s2)C1` (relative stereo) [Compound 207, ((2-(((5S,8S,10aR)-3-acetyl-8-((rel-trans)-3-cyano-2-phenylpyrrolidine-1-carbonyl)-6-oxodecahydropyrrolo[1,2-a][1,5]diazocin-5-yl)carbamoyl)benzo[b]thiophen-5-yl)difluoromethyl)phosphonic acid], the values for the IC50 in test [1] and in test [2] were 300 to 3000 nM and 1000 to 10000 nM, respectively.

Source of the values: patent US20250179103A1, “6-OXODECAHYDROPYRROLO[1,2-A][1,5]DIAZOCINE AND 6-OXODECAHYDRO-4H-PYRROLO[2,1-D][1,5]THIAZOCINE DERIVATIVES AS STAT3 AND STAT6 MODULATORS FOR THE TREATMENT OF CANCER AND INFLAMMATORY CONDITIONS” (Recludix Pharma, Inc., priority 2022, published 2025).
